Source: publication PMC9229919, “4-Aminoquinoline-Based Adamantanes as Potential Anticholinesterase Agents in Symptomatic Treatment of Alzheimer’s Disease” (Pharmaceutics, 2022)

Columns and labels:
recombinant human AChE = target: T1, recombinant human AChE (Homo sapiens, UniProt P22303); experiment: biochemical; assay type: biochemical
T1 construct: gift of Dr Florian Nachon (Armed Forces Biomedical Research Institute, Brétigny-sur-Orge, France)
Procedure: (§1) Acetylthiocholine (ATCh) and 5,5′-dithiobis(2-nitrobenzoic acid) (DTNB) were purchased from Sigma-Aldrich, St. Louis, MO, USA. ATCh was dissolved in water and DTNB in 0.1 M sodium phosphate buffer (pH 7.4). The 4-aminoquinilines were dissolved in DMSO and all further dilutions were made in water.
(§2) The sources of AChE and BChE were purified human BChE and recombinant human AChE that was kindly provided by Dr Florian Nachon (Département de Toxicologie, Armed Forces Biomedical Research Institute, Brétigny-sur-Orge, France). […] The enzymes were diluted in sodium phosphate buffer 0.1 M (pH 7.4) containing 0.1% BSA.
(§3) Enzyme activities were measured spectrophotometrically using a slightly modified Ellman method, as described earlier. […] At least three inhibitor concentrations for each substrate concentration were used in at least three experiments. The apparent inhibition constant (Ki,app) was calculated using the Hunter–Downs Equation and linear regression analysis:(1) Ki,app=vi·i/v0−vi=Ki+Ki/KS·s where the y-intercept determines the enzyme-inhibitor dissociation constant (Ki), while the x-intercept determines the enzyme-substrate dissociation constant, KS.
(§4) The Hunter–Downs Equation was used under the assumption that the substrate, due to relatively low concentrations used in experiments, would bind only to the catalytic site of the enzymes, while the inhibitors would bind to both CAS and/or PAs. This allowed the type of inhibition to be determined from Ki,app vs. substrate concentration ([S]) dependency on Hunter–Downs plot.
(§5) The final content of DMSO in the measurements was up to 0.2%. […] The measurements were performed at 25 °C on a Tecan Infinite M200Pro plate reader (Tecan Austria GmbH, Salzburg, Austria).

purified human BChE = target: T2, purified human BChE (Homo sapiens, UniProt P06276); experiment: biochemical; assay type: biochemical; details: ± standard error; 25 °C, ATCh substrate; read-out: Ki BChE
T2 construct: possibly also a gift of Dr Florian Nachon (the sentence is ambiguous)
Procedure: as §1, §2, §3, §4, §5

[1] = Ferric reducing antioxidant power (FRAP) assay; details: mean ± standard error of three experiments;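 further: expressed as µM Fe2+ equivalents from an FeSO4·7H2O standard curve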
Procedure: . All the chemicals were purchased from Sigma-Aldrich (St. Louis, MO, USA), except for tripyridyltriazine (TPTZ) (Fluka, Buchs, Switzerland) and FeCl3 (Kemika, Zagreb, Croatia). The FRAP assay was assessed according to Benzie and Strain [53] with slight procedure adjustments for 96-well microplates. The method is based on the reduction of the ferric-tripyridyltriazine (Fe^3+-TPTZ) complex to ferrous tripyridyltriazine (Fe^2+-TPTZ) by the action of electron-donating compounds at a low pH. Briefly, the FRAP reagent was prepared by mixing acetate buffer (300 mM, pH 3.6), a solution of 10 mM TPTZ in 40 mM HCl, and 20 mM FeCl3 at 10:1:1 (v/v/v). Then, 240 μL of FRAP reagent and 10 μL of sample solution were added to a 96-well plate and incubated at 37 °C for 60 min. The absorbance was measured at 593 nm using a microplate reader (Infinite M200PRO, Tecan Austria GmbH, Salzburg, Austria) against a blank. The reducing capacity was determined for 10 and 100 µM compound concentrations. […]. All measurements were performed in three independent experiments. FRAP values, denominating the reduction of ferric-tripyridyltriazine (Fe^3+-TPTZ) to ferrous tripyridyltriazine (Fe^2+-TPTZ) by 4-aminoquinolines were calculated based on a standard curve obtained using […].

[2] = Reverse-phase thin-layer chromatographic lipophilicity (RF, RM0); assay type: physicochemical; details: for RM0: intercept of RM = RM0 + bC; for b: slope of RM = RM0 + bC
Procedure: Chromatographic determination of lipophilicity
Merck, Darmstadt, Germany). The mobile phase contained organic modifier (methanol, acetone or dioxane), water and hydrochloric acid.
Methanol was varied in the range […]
with an increment of 10%. […]
before chromatogram development. The solvent developing distance was 4.5 cm. Detection of […]
All experiments were performed at ambient temperature (22±2 °C). Retention parameters were calculated as previously described. […]

[3] = Acetone/Water/Hydrochloric acid (conc.)
[4] = Dioxane/Water/Hydrochloric acid (conc.)
[5] = Methanol/Water/Hydrochloric acid (conc.)

T1 sequence (P22303 32-614): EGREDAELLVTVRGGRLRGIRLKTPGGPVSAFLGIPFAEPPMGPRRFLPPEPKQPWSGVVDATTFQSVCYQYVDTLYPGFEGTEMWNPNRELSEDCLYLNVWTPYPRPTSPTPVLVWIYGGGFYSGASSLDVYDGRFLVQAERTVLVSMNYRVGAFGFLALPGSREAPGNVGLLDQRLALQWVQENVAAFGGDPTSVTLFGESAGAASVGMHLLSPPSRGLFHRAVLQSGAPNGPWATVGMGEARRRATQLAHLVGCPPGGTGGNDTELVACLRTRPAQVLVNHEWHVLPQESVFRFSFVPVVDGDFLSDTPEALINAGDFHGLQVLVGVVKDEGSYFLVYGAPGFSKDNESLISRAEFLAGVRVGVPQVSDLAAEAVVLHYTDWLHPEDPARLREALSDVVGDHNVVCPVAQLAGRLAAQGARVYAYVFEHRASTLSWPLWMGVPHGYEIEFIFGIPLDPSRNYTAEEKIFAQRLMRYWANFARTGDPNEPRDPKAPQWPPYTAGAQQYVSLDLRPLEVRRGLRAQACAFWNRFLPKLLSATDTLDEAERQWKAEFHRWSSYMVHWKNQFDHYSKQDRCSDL
T2 sequence (P06276 29-602): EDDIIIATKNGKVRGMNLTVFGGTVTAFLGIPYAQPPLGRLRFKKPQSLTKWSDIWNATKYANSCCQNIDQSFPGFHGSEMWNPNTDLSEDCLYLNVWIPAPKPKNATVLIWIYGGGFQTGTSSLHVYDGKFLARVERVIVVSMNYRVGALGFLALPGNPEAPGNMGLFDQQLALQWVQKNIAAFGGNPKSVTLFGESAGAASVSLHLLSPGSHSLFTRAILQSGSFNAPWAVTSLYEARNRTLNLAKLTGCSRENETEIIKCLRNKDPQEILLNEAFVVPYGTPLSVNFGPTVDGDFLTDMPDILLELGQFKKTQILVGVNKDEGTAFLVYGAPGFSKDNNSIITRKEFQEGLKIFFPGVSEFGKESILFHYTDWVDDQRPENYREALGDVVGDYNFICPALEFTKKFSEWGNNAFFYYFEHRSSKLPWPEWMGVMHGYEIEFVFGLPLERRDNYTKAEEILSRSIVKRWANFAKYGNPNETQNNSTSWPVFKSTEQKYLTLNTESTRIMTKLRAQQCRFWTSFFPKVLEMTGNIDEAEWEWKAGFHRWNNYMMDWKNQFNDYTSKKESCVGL

Question: Which IS (recombinant human AChE; IS = Ki(BChE)/Ki(AChE), IS > 1 selective to AChE) does the source give for `Clc1ccc2c(NCCCCCN(CCC34CC5CC(CC(C5)C3)C4)CCC34CC5CC(CC(C5)C3)C4)ccnc2c1` [Compound 11] here?
Answer: The IS was 2.5.

Question: What about the Ki (recombinant human AChE; ± standard error, 25 °C, ATCh substrate, read-out: Ki AChE) of the same compound?
Answer: The Ki was 330 ± 10 nM.

Question: What about the Ki (purified human BChE) of the same compound?
Answer: The Ki was 820 ± 40 nM.

Question: And the FRAP ([1]; 10 µM compound)?
Answer: Its FRAP is 5.3 ± 1.4 µM.

Question: What about the FRAP ([1]; 100 µM compound) of the same compound?
Answer: Its FRAP is 23 ± 4 µM.

Question: And the RM0 [2, 3]?
Answer: The RM0 was 3.759.

Question: And the b [2, 3]?
Answer: The b was 4.955.

Question: And the RM0 [2, 4]?
Answer: The RM0 was 2.01.

Question: What about the b [2, 4] of the same compound?
Answer: Its b is 2.862.

Question: And the RM0 [2, 5]?
Answer: The RM0 was 5.504.

Question: What about the b [2, 5] of the same compound?
Answer: The b was 5.94.

Question: What about the “RF, Acetone/Water/Hydrochloric acid (conc.), mobile phase I” value ([2]; RP-18 silica, I = 80%AC/15%H2O/5%HCl) of the same compound?
Answer: Its value is 0.58.

Question: What about the “RF, Dioxane/Water/Hydrochloric acid (conc.), mobile phase I” value ([2]; RP-18 silica, I = 90%Dioxane/5%H2O/5%HCl) of the same compound?
Answer: The value was 0.74.

Question: What about the “RF, Methanol/Water/Hydrochloric acid (conc.), mobile phase I” value ([2]; RP-18 silica, I = 90%MeOH/5%H2O/5%HCl) of the same compound?
Answer: Its value is 0.43.

Question: What about the “RF, Acetone/Water/Hydrochloric acid (conc.), mobile phase II” value ([2]; RP-18 silica, II = 75%AC/20%H2O/5%HCl) of the same compound?
Answer: The value was 0.52.

Question: And the “RF, Dioxane/Water/Hydrochloric acid (conc.), mobile phase II” value ([2]; RP-18 silica, II = 80%Dioxane/15%H2O/5%HCl)?
Answer: Its value is 0.64.

Question: And the “RF, Methanol/Water/Hydrochloric acid (conc.), mobile phase II” value ([2]; RP-18 silica, II = 85%MeOH/10%H2O/5%HCl)?
Answer: Its value is 0.31.

Question: What about the “RF, Acetone/Water/Hydrochloric acid (conc.), mobile phase III” value ([2]; RP-18 silica, III = 70%AC/25%H2O/5%HCl) of the same compound?
Answer: Its value is 0.32.

Question: And the “RF, Dioxane/Water/Hydrochloric acid (conc.), mobile phase III” value ([2]; RP-18 silica, III = 70%Dioxane/25%H2O/5%HCl)?
Answer: The value was 0.58.

Question: What about the “RF, Methanol/Water/Hydrochloric acid (conc.), mobile phase III” value ([2]; RP-18 silica, III = 80%MeOH/15%H2O/5%HCl) of the same compound?
Answer: The value was 0.09.

Question: What about the “RF, Dioxane/Water/Hydrochloric acid (conc.), mobile phase IV” value ([2]; RP-18 silica, IV = 60%Dioxane/35%H2O/5%HCl) of the same compound?
Answer: The value was 0.47.

Question: What about the “RF, Acetone/Water/Hydrochloric acid (conc.), mobile phase IV” value ([2]; RP-18 silica, IV = 65%AC/30%H2O/5%HCl) of the same compound?
Answer: The value was 0.27.

Question: And the “RF, Methanol/Water/Hydrochloric acid (conc.), mobile phase IV” value ([2]; RP-18 silica, IV = 75%MeOH/20%H2O/5%HCl)?
Answer: The value was 0.09.

Question: And the “RF, Acetone/Water/Hydrochloric acid (conc.), mobile phase IX” value ([2]; RP-18 silica, IX = 40%AC/55%H2O/5%HCl)?
Answer: Its value is 0.

Question: What about the “RF, Methanol/Water/Hydrochloric acid (conc.), mobile phase IX” value ([2]; RP-18 silica, IX = 50%MeOH/45%H2O/5%HCl) of the same compound?
Answer: Its value is 0.

Question: And the “RF, Dioxane/Water/Hydrochloric acid (conc.), mobile phase V” value ([2]; RP-18 silica, V = 50%Dioxane/45%H2O/5%HCl)?
Answer: The value was 0.13.

Question: What about the “RF, Acetone/Water/Hydrochloric acid (conc.), mobile phase V” value ([2]; RP-18 silica, V = 60%AC/35%H2O/5%HCl) of the same compound?
Answer: The value was 0.12.

Question: And the “RF, Methanol/Water/Hydrochloric acid (conc.), mobile phase V” value ([2]; RP-18 silica, V = 70%MeOH/25%H2O/5%HCl)?
Answer: The value was 0.05.

Question: And the “RF, Dioxane/Water/Hydrochloric acid (conc.), mobile phase VI” value ([2]; RP-18 silica, VI = 40%Dioxane/55%H2O/5%HCl)?
Answer: The value was 0.

Question: What about the “RF, Acetone/Water/Hydrochloric acid (conc.), mobile phase VI” value ([2]; RP-18 silica, VI = 55%AC/40%H2O/5%HCl) of the same compound?
Answer: The value was 0.08.

Question: What about the “RF, Methanol/Water/Hydrochloric acid (conc.), mobile phase VI” value ([2]; RP-18 silica, VI = 65%MeOH/30%H2O/5%HCl) of the same compound?
Answer: Its value is 0.01.

Question: What about the “RF, Acetone/Water/Hydrochloric acid (conc.), mobile phase VII” value ([2]; RP-18 silica, VII = 50%AC/45%H2O/5%HCl) of the same compound?
Answer: Its value is 0.

Question: And the “RF, Methanol/Water/Hydrochloric acid (conc.), mobile phase VII” value ([2]; RP-18 silica, VII = 60%MeOH/35%H2O/5%HCl)?
Answer: The value was 0.

Question: And the “RF, Acetone/Water/Hydrochloric acid (conc.), mobile phase VIII” value ([2]; RP-18 silica, VIII = 45%AC/50%H2O/5%HCl)?
Answer: Its value is 0.

Question: And the “RF, Methanol/Water/Hydrochloric acid (conc.), mobile phase VIII” value ([2]; RP-18 silica, VIII = 55%MeOH/40%H2O/5%HCl)?
Answer: The value was 0.
